# Measured values as given in patent US10004697B2, “In vivo sperm selection for treating male infertility” (M Pharmaceutical USA Inc., priority 2016, dated 2018).
# Test system: women
# Assay: Topical menthol applied to the vulva: increase of vaginal lubrication in women
# Type: in vivo, human
# Settings: applied to the vulva (including the clitoris)
# Excerpt: Abnormal sperm quality in combination with inadequate vaginal lubrication can cause infertility. The menthol-stimulated vaginal plasma transudate 30 that is generated by use of the inventive method compensates for lubrication insufficiency that may be present in the female sexual partner of the infertile male. […] Since most infertility is a combination of female and male factors, the production of this vaginal transudate 30 can aid conception rates of both infertile males and females. […] Therefore the sperm, even if they somehow are able to be capacitated, have little or no protective and nourishing substrate in which they can swim up through the external os 24 and into the cervical canal 21. The odds of fertilization are thus extremely low.
compound,measurement,setting,value
CC1CCC(C(C)C)C(O)C1 (centres unmarked) [menthol],women in whom lubrication is increased,all women,80%
same,women in whom lubrication is increased,women over 35,90%
